Laboratory results taken from patent US9668959B2, “A3 adenosine receptor ligands for modulation of pigmentation” (ORADIN PHARMACEUTICAL LTD., priority 2009, dated 2017).

Experiments:
[1] = tested on: A3 adenosine receptor; details: cited from earlier work
[2] = tested on: Mitf; assay: Mitf expression and localization in B16 melanocytes (immunostaining, confocal microscopy); assay type: cell-based, murine; details: 10 μM; for Mitf expression: 3 h or 24 h, FIG. 7
Method: B16 melanocytes were grown for 24 h on glass cover-slips coated with poly-L-lysine (500 ug/ml) in 6 wells plates in the presence of IB-MECA or MRS-1523 (10 μM), for 3 h or 24 h at 37° C. Cells were fixed in 4% formaldehyde in phosphate buffered saline (PBS) for 1 h at room temperature. […] To block non-specific interaction of the antibodies, cells were incubated with PBS (1% BSA, 0.1% Triton X-100). […] Cells were washed three times with PBS and mounted with Fluoromount (Sigma). Cells were visualized by confocal microscopy (excitation 553 and emission at 568, Lieca).

[3] = tested on: B16 melanocytes; assay: Melanin assay (melanin in cell lysates and media) in B16 melanocytes; assay type: cell-based, murine; details: for increase of the total melanin level: FIG. 1B; for melanin secretion to the media, visual (photograph): FIG. 3E; for detectable levels of melanin secreted to the medium (extracellular): after 24 hours of exposure
Method: B16 F1 melanoma cells were grown adherently and maintained in DMEM (without phenol red), containing 10% fetal calf serum, 1% antibiotics (penicillin, streptomycin and nystatin, each at 100 U/ml), and 2 mM L-glutamine. Cells were cultured at 37° C. in 5% CO2, and passaged two to three times weekly at a ratio of 1:10.
Melanin content was determined as reported by Sato et al., (2008), Biol. Pharm. Bull., 31(1):33-7, with modifications. Cells (6.5×10^4) were seeded into 6 well plates with 5 ml of DMEM medium (described above) and incubated at 37° C. with 5% CO2 for 3-4 hours to enable cell adherence. Cells were then exposed to test chemicals (IB-MECA, MRS-1523 or kojic acid) at the desired concentration and incubation periods. After the treatment, the supernatants were collected to determine the amount of melanin secreted to the medium. Cells were washed with PBS, detached by incubation with trypsin/EDTA and then DMEM with serum (0.75 ml) was added to each well. Cells were collected by centrifugation and lysed by exposure to 2N NaOH (1 ml) at 60° C. for 1 h and the melanin content was determined by measuring the absorption at 400 nm. The amount of protein in each lysate was determined using bovine serum albumin is used as the standard. The amount of melanin in each sample was calculated using synthetic melanin as standard. The results were expressed as the melanin content per mg protein (μg/mg protein). To compare among treatments, the results were expressed as percent relative to control.

[4] = tested on: human skin explants; assay: Ex vivo human skin organ culture, pigmentation by DOPA staining and light transmission; assay type: cell-based; details: for number of dark-stained DOPA positive melanocytes (D-P-M) compared to control: IB-MECA or MRS-1523 10 or 50 μM, hydroquinone 100 μM, FIGS. 8B and 8D; for melanin levels in skin explants: 10 or 50 μM, 12 days of exposure
Method: Samples of human breast skin obtained during breast surgery were cut into pieces (0.5×0.5 cm) and cultured in DMEM medium (described above) in 6 well plates and incubated at 37° C. with 5% CO2 for 12 days. […] Treated skin samples were washed with PBS and the epidermal sheets were separated from the dermis and incubated in 0.1% L-3,4-DOPA in PBS for 4 h at 37° C. The epidermis sheets were then fixed with 4% formaldehyde solution, dehydrated by graded alcohol, cleared in xylene, and mounted on glass slides. DOPA positive melanocytes were visualized by light microscopy (×400 magnification). […] Light transmission of each area in the epidermis sheet was calculated and expressed as a mean of density of three images.

[5] = tested on: Akt; assay: Akt phosphorylation in serum starved B16 melanocytes (western blot); assay type: cell-based, murine; details: 10 μM, up to 3 h
Method: (§1) B16 melanocytes grown in 6-well plates were serum starved overnight and then incubated in the presence of IB-MECA or MRS-1523 (10 μM), for different time intervals at 37° C. Cells were then rinsed with ice cold PBS and lysed by addition of RIPA buffer containing: proteinase inhibitor (PIC, 1:50 v/v), 0.1 mM phenylmethylsulphonylfluoride (PMSF) and 1 mM sodium orthovandate. Cells debris was removed by centrifugation. The protein level in the supernatants was determined using BSA as standard. Equal amounts of the sample (20 μg) were separated by SDS-PAGE using 10% polyacrylamide gels. The resolved proteins were then electroblotted onto nitrocellulose membrane. Membranes were blocked with 1% bovine serum albumin and incubated with anti-ERK-2 antibody (1:1000) or anti-phospho-ERK antibody (1:10000) for 1 h at room temperature, or with anti-Akt-1 antibody (1:1000) or with anti-phospho-Akt antibody […] at 4° C. for 24 h. Blots were then washed and incubated with horseradish peroxidase (conjugated secondary antibodies), for 1 hour at room temperature. The proteins were detected using ECL kit. For the detection of ERK phosphorylation after 72 hours of exposure to the ligands, non-starved cells were used (with 10% FCS).

[6] = tested on: B16 melanocytes; assay: Microscopy of melanosome level and distribution in treated B16 melanocytes; assay type: cell-based, murine; details: 10 μM, 24 h, FIG. 3A
[7] = tested on: ERK1/2; assay: ERK1/2 phosphorylation in B16 melanocytes (western blot); assay type: cell-based, murine; details: for ERK phosphorylation: 72 hours of exposure, non-starved cultures (10% FCS), FIG. 6B
Method: as §1
ERK phosphorylation in non-starved cultures (containing 10% FCS) after 72 hours of exposure to the ligands was examined.

[8] = tested on: human breast skin; assay: Ex vivo human skin organ culture, pigmentation by Fontana-Masson stain; assay type: cell-based; details: for melanin accumulation and/or deposition in keratinocytes (histological appearance): FIG. 9
Method: Formalin fixed paraffin embedded skin sections from samples of human breast skin treated with IB-MECA, MRS-1523 or hydroquinone as described for FIG. 8, were evaluated for Fontana-Masson staining and visualized by light microscopy (×400). IBMX (100 μM) was used as a positive control for induction of melanogenesis. K, keratinocytes; M, melanocytes.
Samples of human breast skin obtained during breast surgery were cut into pieces (0.5×0.5 cm) and cultured in DMEM medium (described above) in 6 well plates and incubated at 37° C. with 5% CO2 for 12 days. Skin samples were topically treated with 10 or 50 μM of various A3 adenosine receptor ligands or 100 μM hydroquinone three times during the incubation period and the medium was exchanged every 3 days.

[9] = highest IB-MECA concentration, 5 days, FIG. 1A
[10] = 10 μM, serum starved cells, FIG. 6A

Q: For CNC(=O)[C@H]1O[C@@H](n2cnc3c(NCc4cccc(I)c4)ncnc32)[C@H](O)[C@@H]1O [IB-MECA, N^6-(3-iodobenzyl) adenosine-5′-(N-methyluronamide)], which “selectivity for the A3 adenosine receptor versus either the A1 or A2A receptors” value [1] is on record?
A: 50 fold

Q: What about the “time to translocation of Mitf protein to the nucleus” value [2] of the same compound?
A: ≤ 3 h

Q: What about the Mitf expression [2] of the same compound?
A: highly expressed

Q: What about the “Mitf expression in cytoplasm and nucleus” value ([2]; after 24 h of exposure) of the same compound?
A: remained high

Q: What about the “increase of the total melanin level” value ([3]; 5 μM, 5 days) of the same compound?
A: 220±19.4%

Q: What about the “level of total melanin” value ([3]; 10 μM, 72 hours of exposure) of the same compound?
A: non-significantly increased

Q: What about the “increase in the total melanin level” value ([3]; 10 μM, 120 h) of the same compound?
A: 537±31.9%

Q: And the “increase of the total melanin level” value ([3]; 10 μM, 5 days)?
A: 369±1%

Q: And the “melanin secretion to the media, visual (photograph)” value ([3]; 10 μM, 5 days)?
A: visually observable increase in melanin

Q: What about the “detectable levels of melanin secreted to the medium (extracellular)” value ([3]; 10 μM) of the same compound?
A: not observed

Q: What about the “total melanin level increased by” value ([3]; 10 μM, four days (96 h)) of the same compound?
A: 198±12.1%

Q: And the “increase of the total melanin level” value ([3]; 40 μM, 5 days)?
A: 441±53.8%

Q: What about the “intracellular melanin level increased by” value [3, 9] of the same compound?
A: 143±4.1%

Q: And the “secretion of melanin to the media increased by” value [3, 9]?
A: 554±23.8%

Q: And the “pigmentation increased by (light transmission through epidermal sheets after DOPA staining)” value ([4]; 10 μM, 12 days)?
A: 27+3.9%

Q: And the “pigmentation increased by (light transmission through epidermal sheets after DOPA staining)” value ([4]; 50 μM, 12 days)?
A: 36+2.6%

Q: And the “number of dark-stained DOPA positive melanocytes (D-P-M) compared to control” value (“number … (D-P-M) compared to control” for short) ([4]; 12 days)?
A: increased number

Q: What about the “melanin levels in skin explants” value ([4]; topical) of the same compound?
A: increased melanin levels

Q: What about the “Akt phosphorylation on continued exposure” value [5] of the same compound?
A: increased phosphorylation of Akt

Q: What about the “melanosome level and distribution in the cytosol” value [6] of the same compound?
A: melanosomes were accumulated in the perinuclear areas

Q: And the “level of ERK phosphorylation” value ([7]; 10 μM, 10 min to 3 h, serum starved cells, FIG. 6A)?
A: did not increase the level of ERK phosphorylation

Q: And the ERK phosphorylation [7]?
A: did not appear to affect ERK phosphorylation

Q: And the “pigmentation of Fontana-Masson stained skin sections compared to control” value (“pigmentation … compared to control” for short) ([8]; 10 μM)?
A: increased pigmentation

Q: And the “melanin accumulation and/or deposition in keratinocytes (histological appearance)” value [8]?
A: elevation in melanin accumulation and/or deposition in the adjacent keratinocytes

Q: With CC(C)Cn1c(=O)n(C)c(=O)c2[nH]cnc21 [IBMX, 3-isobutyl-1-methyl-xanthine] as the compound, how does the “pigmentation … compared to control” value ([8]; 100 μM, positive control) read?
A: increased pigmentation

Q: Which Mitf expression [2] does the source give for CCCOC(=O)c1c(-c2ccccc2)nc(CC)c(C(=O)SCC)c1CCC [MRS-1523, 3-propyl-6-ethyl-5[(ethylthio)carbonyl]-2-phenyl-4-propyl-3-pyridine carboxylate] here?
A: very low Mitf expression

Q: And the “melanin level in the cells decreased by” value ([3]; 1 μM, 5 days)?
A: 27±5.7%

Q: And the “total melanin decreased by” value ([3]; 1 μM, 5 days)?
A: 37±5.7%

Q: What about the “melanin level in the cells decreased by” value ([3]; 5 μM, 5 days) of the same compound?
A: 24±1.7%

Q: And the “total melanin decreased by” value ([3]; 5 μM, 5 days)?
A: 24±1.9%

Q: What about the “decrease in the overall melanin level” value ([3]; 10 μM, 5 days) of the same compound?
A: 88±1.3%

Q: And the “melanin secretion to the media, visual (photograph)” value ([3]; 10 μM, 5 days)?
A: visually observable decrease in melanin

Q: And the “detectable levels of melanin secreted to the medium (extracellular)” value ([3]; 10 μM)?
A: not observed

Q: What about the “total melanin level decreased by” value ([3]; 10 μM, four days (96 h)) of the same compound?
A: 67±4.4%

Q: And the “melanin level within the cells decreased by” value ([3]; 40 μM, 5 days, FIG. 2A)?
A: 11±2.3%

Q: And the “melanin secretion blocked by” value ([3]; 40 μM, 5 days, FIG. 2A)?
A: 88±1.7%

Q: What about the “decrease in total melanin” value ([3]; 40 μM, 5 days, FIG. 2B) of the same compound?
A: 67±1.07%

Q: And the “decrease of the intracellular melanin” value ([3]; "this treatment" (concentration unclear), 5 days)?
A: 48%±4.9

Q: What about the “secreted and total melanin levels compared to control” value ([3]; all concentrations within 1-40 μM, 5 days) of the same compound?
A: lower than that of the control

Q: And the “pigmentation decreased by (light transmission through epidermal sheets after DOPA staining)” value ([4]; 10 μM, 12 days)?
A: 80+21.8%

Q: And the “pigmentation decreased by (light transmission through epidermal sheets after DOPA staining)” value ([4]; 50 μM, 12 days)?
A: 49.5 ± 6.9%

Q: What about the “number … (D-P-M) compared to control” value ([4]; 12 days) of the same compound?
A: decreased number

Q: What about the “melanin levels in skin explants” value ([4]; topical) of the same compound?
A: decreased melanin levels

Q: And the “Akt phosphorylation on continued exposure” value [5]?
A: downregulation of P-Akt

Q: And the “melanosome level and distribution in the cytosol” value [6]?
A: more melansomes were observed in the cell periphery and in the dendritic sites of the control and IB-MECA treated melanocytes as compared to MRS-1523 treated cells

Q: And the “time to induced phosphorylation of ERK 1” value [7, 10]?
A: ≤ 30 min

Q: And the “time to induced phosphorylation of ERK 2” value [7, 10]?
A: ≤ 10 min

Q: What about the ERK phosphorylation [7] of the same compound?
A: stimulated phosphorylation of both ERK1 and ERK 2

Q: And the “melanin accumulation and/or deposition in keratinocytes (histological appearance)” value [8]?
A: lesser extent of melanin accumulation and/or deposition in the keratinocytes

Q: And the “pigmentation … compared to control” value ([8]; concentration not given)?
A: decreased pigmentation

Q: Which “number … (D-P-M) compared to control” value ([4]; 12 days) does the source give for Oc1ccc(O)cc1 [hydroquinone] here?
A: increased number

Q: And the skin pigmentation ([4]; topical, 100 μM, 12 days)?
A: increased skin pigmentation

Q: With O=c1cc(CO)occ1O [kojic acid] as the compound, how does the “effect on melanin synthesis and secretion” value ([3]; 5 days, FIG. 4A) read?
A: both melanin synthesis (overall melanin levels) and secretion (melanin level in the medium) were affected

Q: And the “inhibition in the total melanin level” value ([3]; 5 days, concentration not given, FIG. 4B)?
A: 51%±2.4
